Results: US7906547B2, “Azabicylic compounds, a process for their preparation and pharmaceutical compositions containing them” (Les Laboratoires Servier, priority 2008, dated 2011)
Where a name gives a salt, the structure may show the parent alone.

Tests used:
Wistar rat [1] = assay: Interaction with barbital in the Wistar rat; assay type: in vivo; conditions: 30 mg/kg PO 30 minutes before barbital 170 mg/kg IP, sleep measured for 4 hours
Protocol: The objective of this test is to determine the anti-sedative, awakening and/or anti-hypnotic properties of the compounds of the present invention. The rats are placed in individual cages and are given an injection of barbital (170 mg/kg IP). The duration of sleep is then measured for 4 hours after the injection of barbital, determined on the basis of loss of the righting reflex. The compounds of the invention or their carriers are administered by the oral route 30 minutes before the administration of barbital.

Wistar rat [2] = assay: Electroencephalogram recordings in the awake Wistar rat; assay type: in vivo; conditions: 3 mg/kg IP
Protocol: Electrodes are chronically implanted in adult male Wistar rats, being located at the surface of the frontal and parietal cortex. Cortical electroencephalogram (EEG) recordings are made in the rats placed in cages in a sound-proofed room. The compounds and carriers are administered in randomised manner by the intraperitoneal route at 10 o'clock on the same days with a minimum of 3 days between each administration, allowing each rat to be used as its own control. The absolute power of the slow delta activities (1-4 Hz), which predominate during slow sleep and disappear during wakefulness and paradoxical sleep, is averaged over successive periods of 30 minutes. Over 30 minutes, high and low values for the power of the slow delta activities are signs of […], respectively.

NMRI mouse [3] = assay: Tail suspension test in the NMRI mouse; assay type: in vivo; conditions: 10 mg/kg IP 24 hours and 30 minutes before suspension, 6 minutes
Protocol: The tail suspension test in the mouse (Porsolt et al., Arch. Int. Pharmacodyn., 1987, 288, 11) enables detection of psychopharmacological properties of compounds. NMRI mice are suspended by the tail, with the aid of a piece of adhesive tape, from a hook for 6 minutes: the immobility time is measured automatically with the aid of movement sensors. The animals are treated, by the intraperitoneal route, with the compounds of the invention or their carriers 24 hours and 30 minutes before they are suspended.

[4] = target: T1, type H3 central histamine receptors (Mus musculus, UniProt P58406); assay: Cerebral levels of Nτ-methylhistamine in the NMRI mouse (ex vivo H3 antagonist activity); conditions: one hour after treatment, vs carrier
T1 construct: the brains are removed, frozen in liquid nitrogen, weighed and homogenised; from tissue; host or cells: brain of living NMRI mice (oral dosing)
Protocol: The purpose of this study, which was carried out in accordance with the method of Taylor et al. (Biochem. Pharm., 1992, 44, 1261-1267), is to evaluate the ex vivo activity of the compounds of the present invention as antagonists of type H3 central histamine receptors. […] An increase in the cerebral concentrations of N^τ-methylhistamine indicates an increase in the turn-over of histamine by blockage of the type H3 central histamine receptors.
NMRI mice (18-20 g) are treated with compounds of the present invention or with their carrier (20 ml/kg) by the oral route. One hour after the pharmacological treatment, the animals are sacrificed; the brains are removed, frozen in liquid nitrogen, weighed and homogenised in 0.1N HClO4 at 4° C. The homogenised products are centrifuged (15 000 g, 17 min, 4° C.). The supernatants are recovered and divided into aliquots. The aliquots are frozen in liquid nitrogen and stored at −80° C. until they are analysed.
Determination of the cerebral levels of N^τ-methylhistamine is carried out by capillary electrophoresis. The tissue levels of N^τ-methylhistamine are expressed in μg/g of fresh brain. The comparison of the cerebral levels of N^τ-methylhistamine between animals treated with the carrier (controls) and animals treated with compounds of the present invention is carried out by single-factor variance analysis followed, if necessary, by a complementary analysis (Dunnett's test).

NMRI mouse [5] = assay: Marble-burying test in the NMRI mouse; assay type: in vivo; conditions: 30 mg/kg IP 30 minutes before test, 30 minutes period
Protocol: The spontaneous marble-burying behaviour in the mouse is a very sensitive empirical test for antidepressant compounds (Sanchez and Meier, Psychopharmacology, 1997; 129: 197-205; Nicolas and Prinssen, Eur. J. Pharmacol., 2006, 547: 106-115). The mice are placed in individual cages in which there are 24 marbles and the number of marbles buried by each animal is determined for a period of 30 minutes. The animals are treated by the intraperitoneal route with the compounds of the present invention or their carriers 30 minutes before placing the animals in the cage containing marbles.

NMRI mouse [6] = assay: Forced swimming test in the NMRI mouse; assay type: in vivo; conditions: 30 mg/kg IP 30 minutes before test, final 4 minutes of 6
Protocol: The forced swimming test is very widely used for detecting the antidepressant properties of compounds (Porsolt et al., Arch. Int. Pharmacodyn., 1977, 229, 327-336). The animals are placed for 6 minutes in cylinders filled with water (14 cm) and the immobility time is measured for the final 4 minutes by a video-tracking system. The compounds of the present invention or their carriers are administered by the intraperitoneal route 30 minutes before the mice are placed in the cylinder.

Sprague-Dawley rat = assay: Object recognition in the Sprague-Dawley rat; assay type: in vivo; conditions: 0.3 mg/kg PO, 60 minutes before each session, 24 hours between sessions
Source text: The object recognition test in the Sprague-Dawley rat (Behav. Brain Res., 1988, 31, 47-59) is based on the spontaneous exploratory activity of the animal and has the characteristics of episodic memory in humans. This memory test is sensitive to ageing (Eur. J. Pharmacol., 1997, 325, 173-180) and to cholinergic dysfunctions (Pharm. Biochem. Behav. 1996, 53(2), 277-283) and is based on the differences in the exploration of 2 objects of fairly similar shape—one familiar, the other new. Prior to the test, the animals are habituated to the environment (an enclosure without an object). In the course of a first session, the rats are placed (3 minutes) in the enclosure, in which there are 2 identical objects. The duration of exploration is measured for each object. In the course of the second session (3 minutes), 24 hours later, 1 of the 2 objects is replaced by a new object. The duration of exploration is measured for each object. The assessment criterion is the difference, Delta, expressed in seconds, between the exploration times for the new object and for the familiar object in the course of the second session.

Wistar rat [7] = assay: Social recognition in the Wistar rat; assay type: in vivo; conditions: second encounter after 2 hours
Source text: Initially described in 1982 (J. Comp. Physiol., 1982, 96, 1000-1006), the social recognition test has subsequently been proposed by various authors (Psychopharmacology, 1987, 91, 363-368; Psychopharmacology, 1989, 97, 262-268) for studying the mnemocognitive effects of new compounds. The test is based on the natural expression of the olfactory memory of the rat and its natural tendency to forget and allows evaluation of memorisation, by recognition of a young congeneric animal, by an adult rat. A young rat (21 days), taken at random, is placed for 5 minutes in the cage housing an adult rat. With the aid of a video device, the experimenter observes the social recognition behaviour of the adult rat and measures its overall duration. The young rat is then removed from the adult rat's cage and is placed in its own cage until the second introduction. The adult rat is given the compound under test by the intraperitoneal route and, after 2 hours, is again brought into the presence (5 minutes) of the young rat. The social recognition behaviour is then observed again and its duration measured. The assessment criterion is the difference (T2−T1), expressed in seconds, between the “recognition” times of the 2 encounters.

T1 sequence (P58406 whole entry): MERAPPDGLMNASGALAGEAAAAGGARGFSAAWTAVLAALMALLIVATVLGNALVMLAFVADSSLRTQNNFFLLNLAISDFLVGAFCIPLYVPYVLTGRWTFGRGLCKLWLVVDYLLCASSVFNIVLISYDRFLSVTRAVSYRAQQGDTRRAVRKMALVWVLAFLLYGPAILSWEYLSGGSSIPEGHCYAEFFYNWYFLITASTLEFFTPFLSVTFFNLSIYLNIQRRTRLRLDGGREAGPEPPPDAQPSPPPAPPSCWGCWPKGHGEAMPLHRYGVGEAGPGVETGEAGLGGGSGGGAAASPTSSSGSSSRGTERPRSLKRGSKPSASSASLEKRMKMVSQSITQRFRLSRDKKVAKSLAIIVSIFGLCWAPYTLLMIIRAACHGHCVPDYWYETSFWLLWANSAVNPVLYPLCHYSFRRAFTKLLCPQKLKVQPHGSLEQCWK

Row | Compound | reduction of the duration of sleeping caused by barbital (Wistar rat [1]) [%] | reduction in the immobility time (NMRI mouse [3]) [%] | increase in endogenous cerebral concentrations of Nτ-methylhistamine ([4]; 10 mg/kg PO) [%] | increase in endogenous cerebral concentrations of Nτ-methylhistamine ([4]; 30 mg/kg PO) [%] | decrease in the number of balls buried (NMRI mouse [5]) [%] | reduction in immobility (NMRI mouse [6]) [%] | further results
1 | CN(C)C(=O)c1ccc(OCCCCN2C[C@H]3C[C@H]3C2)cc1.O=C(O)C(=O)O [Example 8, 4-{4-[(1R,5S)-3-Azabicyclo[3.1.0]hex-3-yl]butoxy}-N,N-dimethyl-benzamide oxalate] | −79 | – | – | – | – | – | –
2 | CC(=O)N(C)c1ccc(OCCCN2C[C@H]3C[C@H]3C2)cc1.Cl [Example 13, N-(4-{3-[(1R,5S)-3-Azabicyclo[3.1.0]hex-3-yl]propoxy}phenyl)-N-methylacetamide hydrochloride] | – | 53 | 135 | 303 | – | – | duration of the reduction in the power of the slow delta waves (Wistar rat [2]): 120 min; effect on power of the slow delta waves (1-4 Hz), cortical EEG (Wistar rat [2]): significant reduction
3 | CC(=O)Nc1ccc(OCCN2C[C@H]3C[C@H]3C2)cc1 [Example 5, N-(4-{2-[(1R,5S)-3-Azabicyclo[3.1.0]hex-3-yl]ethoxy}phenyl)acetamide] | −80 | 64 | 109 | 200 | 49 | 32 | –
4 | CNC(=O)c1ccc(OCCCCN2C[C@H]3C[C@H]3C2)cc1 [Example 12, 4-{4-[(1R,5S)-3-Azabicyclo[3.1.0]hex-3-yl]butoxy}-N-methylbenzamide] | −55 | – | – | – | – | – | –
5 | NC(=O)c1ccc(OCCCN2C[C@H]3C[C@H]3C2)cc1 [Example 1, 4-{3-[(1R,5S)-3-Azabicyclo[3.1.0]hex-3-yl]propoxy}-benzamide hydrochloride] | – | 59 | – | – | 48 | 76 | difference, Delta, between exploration times for the new object and the familiar object (second session) (Sprague-Dawley rat): ~6 s; duration of the reduction in the power of the slow delta waves (Wistar rat [2]): 120 min; difference (T2−T1) between the recognition times of the 2 encounters (Wistar rat [7]; 1 mg/kg IP): 21 s; difference (T2−T1) between the recognition times of the 2 encounters (Wistar rat [7]; 3 mg/kg IP): 26 s
6 | COCC(=O)Nc1ccc(OCCN2C[C@H]3C[C@H]3C2)cc1 [Example 15, N-(4-{2-[(1R,5S)-3-Azabicyclo[3.1.0]hex-3-yl]ethoxy}phenyl)-2-methoxyacetamide] | −76 | 77 | – | – | 83 | 34 | –
7 | NC(=O)c1ccc(OCCN2C[C@H]3C[C@H]3C2)cc1 [Example 2, 4-{2-[(1R,5S)-3-Azabicyclo[3.1.0]hex-3-yl]ethoxy}benzamide] | – | – | – | – | 99 | – | –
8 | COCC(=O)Nc1ccc(OCCCN2C[C@H]3C[C@H]3C2)cc1 [Example 14, N-(4-{3-[(1R,5S)-3-Azabicyclo[3.1.0]hex-3-yl]propoxy}phenyl)-2-methoxyacetamide] | – | 36 | 124 | 266 | – | – | –
9 | CC(=O)Nc1ccc(OCCCN2C[C@H]3C[C@H]3C2)cc1 [Example 4, N-(4-{3-[(1R,5S)-3-Azabicyclo[3.1.0]hex-3-yl]propoxy}phenyl)acetamide] | – | 36 | – | – | – | – | –
10 | CC(=O)Nc1ccc(OCCCCN2C[C@H]3C[C@H]3C2)cc1 [Example 6, N-(4-{4-[(1R,5S)-3-Azabicyclo[3.1.0]hex-3-yl]butoxy}phenyl)acetamide] | – | – | 106 | 210 | – | – | –
